How the values were obtained:
Avena fatua [1] = assay: Phytotoxicity against Avena fatua assessed as inhibition of shoot growth as shoot length at 2 mM (reference value: 11.2 +/- 0.35%); format: functional; conditions: read-out: GI
Avena fatua [2] = assay: Phytotoxicity against Avena fatua assessed as inhibition of shoot growth as shoot length at 1 mM (reference value: 11.2 +/- 0.35%); format: functional; conditions: read-out: GI
Avena fatua [3] = assay: Phytotoxicity against Avena fatua assessed as inhibition of shoot growth as shoot length at 0.5 mM (reference value: 11.2 +/- 0.35%); format: functional; conditions: read-out: GI
Avena fatua [4] = assay: Phytotoxicity against Avena fatua assessed as inhibition of shoot growth as shoot length at 0.25 mM (reference value: 11.2 +/- 0.35%); format: functional; conditions: read-out: GI
Avena fatua [5] = assay: Phytotoxicity against Avena fatua assessed as inhibition of shoot growth as shoot length at 0.125 mM (reference value: 11.2 +/- 0.35%); format: functional; conditions: read-out: GI
Avena fatua [6] = assay: Phytotoxicity against Avena fatua assessed as inhibition of root growth as root length; format: functional, organism-based
Avena fatua [7] = assay: Phytotoxicity against Avena fatua assessed as inhibition of root growth as root length at 2 mM (reference value: 9.6 +/- 0.36%); format: functional; conditions: read-out: GI
Avena fatua [8] = assay: Phytotoxicity against Avena fatua assessed as inhibition of root growth as root length at 1 mM (reference value: 9.6 +/- 0.36%); format: functional; conditions: read-out: GI
Avena fatua [9] = assay: Phytotoxicity against Avena fatua assessed as inhibition of root growth as root length at 0.5 mM (reference value: 9.6 +/- 0.36%); format: functional; conditions: read-out: GI
Avena fatua [10] = assay: Phytotoxicity against Avena fatua assessed as inhibition of root growth as root length at 0.25 mM measured after 10 days sowing (reference value: 9.6 +/- 0.36%); format: functional; conditions: 240 h, read-out: GI
Avena fatua [11] = assay: Phytotoxicity against Avena fatua assessed as inhibition of root growth as root length at 0.125 mM (reference value: 9.6 +/- 0.36%); format: functional; conditions: read-out: GI
Avena fatua [12] = assay: Phytotoxicity against Avena fatua assessed as seed germination at 2 mM measured after 10 days sowing (reference value: 50 +/- 2.89%); format: functional
Avena fatua [13] = assay: Phytotoxicity against Avena fatua assessed as seed germination at 1 mM measured after 10 days sowing (reference value: 50 +/- 2.89%); format: functional
Avena fatua [14] = assay: Phytotoxicity against Avena fatua assessed as seed germination at 0.5 mM measured after 10 days sowing (reference value: 50 +/- 2.89%); format: functional
Avena fatua [15] = assay: Phytotoxicity against Avena fatua assessed as seed germination at 0.25 mM measured after 10 days sowing (reference value: 50 +/- 2.89%); format: functional
Avena fatua [16] = assay: Phytotoxicity against Avena fatua assessed as seed germination at 0.125 mM measured after 10 days sowing (reference value: 50 +/- 2.89%); format: functional
Avena fatua [17] = assay: Phytotoxicity against Avena fatua assessed as inhibition of shoot growth as shoot length; format: functional, organism-based

Row | SMILES | inhibition of growth at 2000 µM (Avena fatua [1]) | inhibition of growth at 1000 µM (Avena fatua [2]) | inhibition of growth at 500 µM (Avena fatua [3]) | inhibition of growth at 250 µM (Avena fatua [4]) | inhibition of growth at 125 µM (Avena fatua [5]) | EC50 (Avena fatua [6]) | inhibition of growth at 2000 µM (Avena fatua [7]) | inhibition of growth at 1000 µM (Avena fatua [8]) | inhibition of growth at 500 µM (Avena fatua [9]) | inhibition of growth at 250 µM (Avena fatua [10]) | inhibition of growth at 125 µM (Avena fatua [11]) | Activity (Avena fatua [12]) | Activity (Avena fatua [13]) | Activity (Avena fatua [14]) | Activity (Avena fatua [15]) | Activity (Avena fatua [16]) | EC50 (Avena fatua [17])
1 | C=C1C(=O)O[C@@H]2[C@H]1CC[C@H](C)[C@@H]1C=CC(=O)[C@@]21C [AMBROSIN] | 86.6% | 75.9% | 74.1% | 51.8% | 19.6% | 220 µM | 99% | 92.4% | 85.4% | 57.3% | 22.9% | 26.7% | 26.7% | 28.3% | 36.7% | 50% | 300 µM
2 | C=C(C(=O)O)[C@@H]1CC[C@H](C)[C@@H]2CCC(=O)[C@@]2(C)C1 [DAMCINIC ACID] | 70.5% | 44.6% | 29.5% | 6.3% | 3.6% | 600 µM | 79.2% | 64.6% | 50% | 31.3% | 4.2% | 28.3% | 38.3% | 38.3% | 40% | 41.7% | 1090 µM
3 | C=C1C(=O)O[C@@H]2[C@H]1CC[C@H](C)[C@@H]1CCC(=O)[C@@]21C [DAMSIN] | 83.9% | 66.1% | 22.3% | 5.4% | 1.8% | 240 µM | 98.2% | 92.4% | 65.6% | 55.2% | 30.2% | 16.7% | 26.7% | 30% | 35% | 46.7% | 830 µM
4 | C=C1C(=O)O[C@@H]2[C@H]1CC[C@H](C)[C@@]1(O)C=CC(=O)[C@@]21C [HYMENIN] | 80.4% | 60.7% | 39.3% | 25% | 10.7% | 570 µM | 95.6% | 72.9% | 37.5% | 15.6% | 8.3% | 30% | 30% | 33.3% | 36.7% | 38.3% | 670 µM
5 | C=C1C(=O)O[C@@H]2[C@H]1CC[C@H](C)C1=CCC(=O)[C@]12C [NEOAMBROSIN] | 84.8% | 43.8% | 20.5% | 10.7% | 2.7% | 480 µM | 94.8% | 61.5% | 45.6% | 40.6% | 11.5% | 23.3% | 40% | 36.7% | 40% | 46.7% | 960 µM
